Reference: ChEMBL document CHEMBL5678818, “Discovery of potent SOS1 inhibitors that block RAS activation via disruption of the RAS-SOS1 interaction” (Proc Natl Acad Sci U S A, 2019)
Activity calls are given as the source filed them. The rule behind the calls is not given here.

Tests used:
[1] = target: G protein-coupled receptor kinase 3 (Homo sapiens) (UniProt P35626); assay: Inhibition of GRK3 (unknown origin) assessed as residual activity at 1000 nM by KINOMEscan analysis relative to control
Sequence of G protein-coupled receptor kinase 3 (Homo sapiens) (P35626 whole entry): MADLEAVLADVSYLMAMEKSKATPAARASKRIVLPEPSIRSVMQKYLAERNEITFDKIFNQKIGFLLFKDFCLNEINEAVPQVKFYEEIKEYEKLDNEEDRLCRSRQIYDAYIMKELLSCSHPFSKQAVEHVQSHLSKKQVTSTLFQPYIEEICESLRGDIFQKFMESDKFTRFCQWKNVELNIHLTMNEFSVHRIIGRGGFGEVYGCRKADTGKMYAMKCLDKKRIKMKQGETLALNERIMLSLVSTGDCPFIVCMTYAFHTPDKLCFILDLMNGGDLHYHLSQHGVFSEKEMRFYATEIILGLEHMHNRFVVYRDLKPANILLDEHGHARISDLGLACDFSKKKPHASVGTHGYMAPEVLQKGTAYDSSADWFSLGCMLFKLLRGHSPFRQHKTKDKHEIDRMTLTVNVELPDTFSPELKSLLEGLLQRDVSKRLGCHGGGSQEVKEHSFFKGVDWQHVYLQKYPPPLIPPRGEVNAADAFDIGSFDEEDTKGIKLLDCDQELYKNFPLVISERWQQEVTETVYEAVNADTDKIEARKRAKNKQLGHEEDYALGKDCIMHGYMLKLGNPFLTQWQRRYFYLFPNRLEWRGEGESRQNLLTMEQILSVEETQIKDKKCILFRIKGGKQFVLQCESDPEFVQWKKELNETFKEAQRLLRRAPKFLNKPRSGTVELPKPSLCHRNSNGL

[2] = target: Mitogen-activated protein kinase 1 (Homo sapiens) (UniProt P28482); assay: Inhibition of ERK2 (unknown origin) assessed as residual activity at 100 nM by KINOMEscan analysis relative to control
Sequence of Mitogen-activated protein kinase 1 (Homo sapiens) (P28482 whole entry): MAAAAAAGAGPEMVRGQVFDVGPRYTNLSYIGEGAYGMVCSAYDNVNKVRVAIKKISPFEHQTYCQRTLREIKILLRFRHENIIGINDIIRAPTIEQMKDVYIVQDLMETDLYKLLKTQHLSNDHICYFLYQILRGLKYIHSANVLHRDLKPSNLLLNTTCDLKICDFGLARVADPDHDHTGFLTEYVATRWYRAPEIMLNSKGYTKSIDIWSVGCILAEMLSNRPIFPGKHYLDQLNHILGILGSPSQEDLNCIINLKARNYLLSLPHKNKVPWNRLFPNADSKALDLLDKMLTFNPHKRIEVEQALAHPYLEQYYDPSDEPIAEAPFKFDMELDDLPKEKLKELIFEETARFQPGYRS

[3] = target: Serine/threonine-protein kinase pim-1 (Homo sapiens) (UniProt P11309); assay: Inhibition of PIM1 (unknown origin) assessed as residual activity at 100 nM by KINOMEscan analysis relative to control
Sequence of Serine/threonine-protein kinase pim-1 (Homo sapiens) (P11309 whole entry, looked up): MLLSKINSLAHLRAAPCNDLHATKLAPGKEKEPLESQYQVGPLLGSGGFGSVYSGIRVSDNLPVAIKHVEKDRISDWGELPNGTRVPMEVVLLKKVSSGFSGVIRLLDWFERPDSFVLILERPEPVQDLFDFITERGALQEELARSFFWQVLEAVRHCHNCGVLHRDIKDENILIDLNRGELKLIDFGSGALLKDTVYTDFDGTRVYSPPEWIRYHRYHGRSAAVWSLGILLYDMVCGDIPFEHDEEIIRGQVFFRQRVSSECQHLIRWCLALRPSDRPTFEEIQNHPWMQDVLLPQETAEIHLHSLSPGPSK

[4] = test system: Tyrosine-protein kinase ABL1 (Homo sapiens), P00519 [F317L]; assay: Inhibition of phosphorylated ABL1 F317L mutant (unknown origin) assessed as residual activity at 100 nM by KINOMEscan analysis relative to control
Sequence of Tyrosine-protein kinase ABL1 (Homo sapiens), P00519 [F317L] (P00519 whole entry F317L): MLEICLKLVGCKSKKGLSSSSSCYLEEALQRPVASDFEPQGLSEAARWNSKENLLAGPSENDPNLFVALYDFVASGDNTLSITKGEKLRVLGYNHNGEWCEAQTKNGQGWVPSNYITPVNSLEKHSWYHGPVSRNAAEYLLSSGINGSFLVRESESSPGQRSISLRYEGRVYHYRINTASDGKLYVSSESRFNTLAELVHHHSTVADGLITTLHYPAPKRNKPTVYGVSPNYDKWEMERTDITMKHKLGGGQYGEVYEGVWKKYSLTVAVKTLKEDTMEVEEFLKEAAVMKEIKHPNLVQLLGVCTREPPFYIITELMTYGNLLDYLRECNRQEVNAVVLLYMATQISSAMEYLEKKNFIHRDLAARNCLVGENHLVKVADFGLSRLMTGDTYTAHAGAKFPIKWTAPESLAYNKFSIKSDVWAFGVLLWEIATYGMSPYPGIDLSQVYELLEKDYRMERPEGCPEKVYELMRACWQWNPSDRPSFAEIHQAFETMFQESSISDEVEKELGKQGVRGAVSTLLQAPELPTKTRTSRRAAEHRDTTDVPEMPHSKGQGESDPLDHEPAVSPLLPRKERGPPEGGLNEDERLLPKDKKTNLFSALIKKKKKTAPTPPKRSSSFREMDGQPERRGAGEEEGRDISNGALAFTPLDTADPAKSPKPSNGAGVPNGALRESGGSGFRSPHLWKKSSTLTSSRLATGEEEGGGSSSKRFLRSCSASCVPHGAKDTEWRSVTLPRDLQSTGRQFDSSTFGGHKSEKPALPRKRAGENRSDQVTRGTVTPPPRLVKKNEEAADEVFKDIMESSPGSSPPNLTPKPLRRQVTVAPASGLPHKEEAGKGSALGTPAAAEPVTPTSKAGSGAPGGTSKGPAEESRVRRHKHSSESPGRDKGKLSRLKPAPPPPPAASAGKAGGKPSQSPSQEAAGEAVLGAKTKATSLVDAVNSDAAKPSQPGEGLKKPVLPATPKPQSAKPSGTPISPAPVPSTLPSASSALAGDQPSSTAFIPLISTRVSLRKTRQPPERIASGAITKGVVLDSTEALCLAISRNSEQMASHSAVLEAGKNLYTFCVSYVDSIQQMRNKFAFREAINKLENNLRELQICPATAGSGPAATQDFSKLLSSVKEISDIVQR

[5] = target: Serine/threonine-protein kinase MAK (Homo sapiens) (UniProt P20794); assay: Inhibition of MAK (unknown origin) assessed as residual activity at 100 nM by KINOMEscan analysis relative to control
[6] = target: Cyclin-dependent kinase 17 (Homo sapiens) (UniProt Q00537); assay: Inhibition of PCTK2 (unknown origin) assessed as residual activity at 100 nM by KINOMEscan analysis relative to control
Sequence of Cyclin-dependent kinase 17 (Homo sapiens) (Q00537 whole entry, looked up): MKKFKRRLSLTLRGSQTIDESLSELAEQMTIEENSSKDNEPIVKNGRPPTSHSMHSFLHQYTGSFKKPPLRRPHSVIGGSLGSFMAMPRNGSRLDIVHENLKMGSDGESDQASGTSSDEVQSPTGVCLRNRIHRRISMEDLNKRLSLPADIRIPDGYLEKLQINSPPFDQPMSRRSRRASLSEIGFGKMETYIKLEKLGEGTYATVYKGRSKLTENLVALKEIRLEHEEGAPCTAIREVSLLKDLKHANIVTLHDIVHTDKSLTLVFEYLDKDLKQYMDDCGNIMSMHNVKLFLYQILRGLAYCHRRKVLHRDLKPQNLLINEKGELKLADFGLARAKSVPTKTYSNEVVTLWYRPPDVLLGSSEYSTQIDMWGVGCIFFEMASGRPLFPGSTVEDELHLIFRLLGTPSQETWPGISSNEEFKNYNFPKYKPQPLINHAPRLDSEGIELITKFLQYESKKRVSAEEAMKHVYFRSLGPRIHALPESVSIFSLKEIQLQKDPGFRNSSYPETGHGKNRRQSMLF

[7] = target: Tyrosine-protein kinase Fyn (Homo sapiens) (UniProt P06241); assay: Inhibition of FYN (unknown origin) assessed as residual activity at 100 nM by KINOMEscan analysis relative to control
Sequence of Tyrosine-protein kinase Fyn (Homo sapiens) (P06241 2-537 limits assumed): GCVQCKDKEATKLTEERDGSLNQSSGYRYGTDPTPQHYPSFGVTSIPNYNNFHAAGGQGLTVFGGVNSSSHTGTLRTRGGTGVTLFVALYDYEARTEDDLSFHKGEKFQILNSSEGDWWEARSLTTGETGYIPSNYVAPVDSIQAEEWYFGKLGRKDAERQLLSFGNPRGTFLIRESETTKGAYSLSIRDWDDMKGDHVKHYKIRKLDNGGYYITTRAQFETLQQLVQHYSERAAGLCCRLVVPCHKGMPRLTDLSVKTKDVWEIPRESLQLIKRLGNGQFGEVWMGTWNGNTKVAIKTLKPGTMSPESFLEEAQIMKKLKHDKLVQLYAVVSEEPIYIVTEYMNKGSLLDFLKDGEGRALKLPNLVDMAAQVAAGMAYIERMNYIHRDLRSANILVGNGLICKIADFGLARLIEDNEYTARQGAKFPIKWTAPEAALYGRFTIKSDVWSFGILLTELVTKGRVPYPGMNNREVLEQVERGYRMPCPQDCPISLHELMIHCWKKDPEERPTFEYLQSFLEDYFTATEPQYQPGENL

Homo sapiens = organism: Homo sapiens; assay: Inhibition of N-terminal GST-tagged recombinant human SOS1 L901K mutant (564 to 1049 residues) expressed in Escherichia coli assessed as reduction in KRAS G12C mutant activation at 10 uM by HTRF analysis relative to control
[8] = target: Serine/threonine-protein kinase SIK1 (Homo sapiens) (UniProt P57059); assay: Inhibition of SIK (unknown origin) assessed as residual activity at 100 nM by KINOMEscan analysis relative to control
[9] = target: T1, Son of sevenless homolog 1 (Homo sapiens) (UniProt Q07889); assay: Binding affinity to N-terminal His10-tagged wild-type recombinant human SOS1 catalytic domain (564 to 1049 residues) expressed in Escherichia coli assessed as binding at 1:1 stoichiometry at 100 uM incubated for 1 hr by native MS analysis
T1 sequence (whole entry): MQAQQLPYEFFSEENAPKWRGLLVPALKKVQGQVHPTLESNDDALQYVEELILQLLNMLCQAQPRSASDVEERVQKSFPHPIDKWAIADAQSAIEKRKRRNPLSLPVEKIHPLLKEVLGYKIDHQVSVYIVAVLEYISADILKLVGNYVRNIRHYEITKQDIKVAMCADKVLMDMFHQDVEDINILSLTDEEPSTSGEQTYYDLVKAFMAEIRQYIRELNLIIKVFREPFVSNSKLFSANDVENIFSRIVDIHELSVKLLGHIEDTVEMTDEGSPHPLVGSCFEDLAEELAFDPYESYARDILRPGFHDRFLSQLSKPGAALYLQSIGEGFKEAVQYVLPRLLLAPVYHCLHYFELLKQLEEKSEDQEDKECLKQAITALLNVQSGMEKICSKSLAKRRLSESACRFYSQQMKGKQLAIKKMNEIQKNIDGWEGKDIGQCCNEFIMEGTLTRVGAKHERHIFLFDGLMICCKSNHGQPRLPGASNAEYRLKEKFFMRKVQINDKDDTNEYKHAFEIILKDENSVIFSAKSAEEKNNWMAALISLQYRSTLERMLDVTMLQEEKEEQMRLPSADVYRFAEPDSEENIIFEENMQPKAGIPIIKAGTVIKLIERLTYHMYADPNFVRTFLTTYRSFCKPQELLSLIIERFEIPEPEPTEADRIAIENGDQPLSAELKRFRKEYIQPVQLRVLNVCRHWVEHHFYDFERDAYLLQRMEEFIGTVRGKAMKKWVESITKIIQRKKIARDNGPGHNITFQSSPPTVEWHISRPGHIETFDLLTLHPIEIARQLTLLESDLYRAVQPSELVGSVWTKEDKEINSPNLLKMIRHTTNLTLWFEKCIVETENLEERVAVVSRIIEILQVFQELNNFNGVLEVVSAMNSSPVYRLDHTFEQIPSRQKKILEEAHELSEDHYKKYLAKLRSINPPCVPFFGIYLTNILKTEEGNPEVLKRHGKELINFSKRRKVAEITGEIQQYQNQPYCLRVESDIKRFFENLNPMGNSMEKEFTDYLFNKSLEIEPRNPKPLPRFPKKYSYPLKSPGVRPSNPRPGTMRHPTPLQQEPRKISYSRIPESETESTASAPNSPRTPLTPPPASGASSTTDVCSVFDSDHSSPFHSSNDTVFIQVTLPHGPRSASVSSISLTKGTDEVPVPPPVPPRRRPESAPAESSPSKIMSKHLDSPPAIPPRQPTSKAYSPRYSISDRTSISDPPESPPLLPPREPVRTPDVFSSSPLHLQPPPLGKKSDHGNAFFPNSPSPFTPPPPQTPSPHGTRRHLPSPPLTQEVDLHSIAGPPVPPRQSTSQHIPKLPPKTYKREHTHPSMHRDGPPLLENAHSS

[10] = target: 5'-AMP-activated protein kinase catalytic subunit alpha-1 (Homo sapiens) (UniProt Q13131); assay: Inhibition of AMPK-alpha1 (unknown origin) assessed as residual activity at 100 nM by KINOMEscan analysis relative to control
Sequence of 5'-AMP-activated protein kinase catalytic subunit alpha-1 (Homo sapiens) (Q13131 whole entry, looked up): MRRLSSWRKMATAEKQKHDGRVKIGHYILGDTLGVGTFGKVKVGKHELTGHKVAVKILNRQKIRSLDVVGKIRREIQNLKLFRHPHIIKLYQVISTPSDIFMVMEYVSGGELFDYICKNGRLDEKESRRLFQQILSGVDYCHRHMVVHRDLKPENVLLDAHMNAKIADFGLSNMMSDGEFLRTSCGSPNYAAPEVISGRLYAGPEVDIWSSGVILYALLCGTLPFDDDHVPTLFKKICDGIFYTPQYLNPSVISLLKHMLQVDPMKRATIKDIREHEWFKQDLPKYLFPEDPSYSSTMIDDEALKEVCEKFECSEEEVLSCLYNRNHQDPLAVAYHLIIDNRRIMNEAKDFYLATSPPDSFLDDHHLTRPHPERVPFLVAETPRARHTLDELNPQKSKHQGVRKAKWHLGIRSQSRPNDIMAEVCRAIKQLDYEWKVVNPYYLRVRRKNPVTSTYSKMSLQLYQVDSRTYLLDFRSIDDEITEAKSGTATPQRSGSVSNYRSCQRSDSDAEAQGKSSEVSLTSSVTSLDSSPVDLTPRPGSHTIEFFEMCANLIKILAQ

[11] = target: BDNF/NT-3 growth factors receptor (Homo sapiens) (UniProt Q16620); assay: Inhibition of TRKB (unknown origin) assessed as residual activity at 100 nM by KINOMEscan analysis relative to control
Sequence of BDNF/NT-3 growth factors receptor (Homo sapiens) (Q16620 32-822 limits assumed): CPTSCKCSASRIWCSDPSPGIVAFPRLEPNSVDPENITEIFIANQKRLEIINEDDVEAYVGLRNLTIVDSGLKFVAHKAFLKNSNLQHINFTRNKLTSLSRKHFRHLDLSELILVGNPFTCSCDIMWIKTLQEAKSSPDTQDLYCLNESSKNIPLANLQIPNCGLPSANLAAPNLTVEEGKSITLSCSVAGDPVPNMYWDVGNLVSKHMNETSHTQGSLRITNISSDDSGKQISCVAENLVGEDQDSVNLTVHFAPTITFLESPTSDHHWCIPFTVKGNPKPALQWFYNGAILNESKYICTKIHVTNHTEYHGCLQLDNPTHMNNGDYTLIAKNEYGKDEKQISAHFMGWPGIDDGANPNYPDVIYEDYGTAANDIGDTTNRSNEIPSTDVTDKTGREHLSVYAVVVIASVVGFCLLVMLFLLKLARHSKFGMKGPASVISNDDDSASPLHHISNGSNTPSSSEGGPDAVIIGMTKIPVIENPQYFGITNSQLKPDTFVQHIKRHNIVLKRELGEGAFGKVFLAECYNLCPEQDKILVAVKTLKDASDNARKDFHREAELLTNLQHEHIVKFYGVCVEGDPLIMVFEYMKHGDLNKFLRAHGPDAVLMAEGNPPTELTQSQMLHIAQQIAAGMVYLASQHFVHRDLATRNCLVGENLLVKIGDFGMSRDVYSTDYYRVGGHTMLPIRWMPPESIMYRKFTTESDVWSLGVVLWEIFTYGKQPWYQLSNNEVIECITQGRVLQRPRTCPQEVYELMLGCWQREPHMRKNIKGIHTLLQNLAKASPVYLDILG

[12] = target: Phosphorylase b kinase gamma catalytic chain, skeletal muscle/heart isoform (Homo sapiens) (UniProt Q16816); assay: Inhibition of PHKG1 (unknown origin) assessed as residual activity at 100 nM by KINOMEscan analysis relative to control

Row | SMILES | Activity [1] | Activity [2] | Activity [3] | Activity [4] | Activity [5] | Activity [6] | Activity [7] | inhibition (Homo sapiens) | Activity [8] | Activity [9] | Activity [10] | Activity [11] | Activity [12]
1 | COc1cc2nc(C)nc(N[C@H](C)c3cccc(-c4cn[nH]c4)c3)c2cc1OC | 76% |  |  |  |  |  |  |  |  |  |  |  | 
2 | COc1cc2ncnc(N[C@H](C)c3cccc4ccccc34)c2cc1OC |  | 72% | 89% | 86% | 100% | 86% | 85% | 38% | 85% | Active | 92% | 96% | 100%
